According to US5585382A, “Polycyclic and heterocyclic chromophores for bis-imide tumoricidals” (The DuPont Merck Pharmaceutical Company, priority 1995, dated 1996):
Converted amounts (≈) assume the structure as drawn. Read-outs that look alike come from different tables or passages of the source.

Legend:
[1] = test system: DLD-2 human colon tumor; experiment: In vivo human tumor xenograft DLD-2 in nude mice; conditions: for Tumor Growth Inhibition activity against DLD-2 (in words): NCI criteria
Description: (§1) The DLD-2 human colon tumor and MX-1 human mammary carcinoma, were originally obtained from a surgically-removed primary colon carcinoma or breast tumor respectively. The human tumor lines were maintained by serial passage in athymic nude mice. The MX-1 human mammary carcinoma is an established tumor used by the NCI. The DLD-2 human colon tumor has been well characterized. (Dexter, D. L.; Spremulli, E. N.; Matook, G. M.; Diamond, I.; Calabresi, P. Cancer Research 1982, 42, 5010; Dexter, D. L.; Barbosa, J. A.; Calabresi, P. Cancer Research 1979, 39, 1020.)
(§2) The mice used in these experiments were outbred Swiss mice or CD-1 mice bearing the nude (nu/nu) gene. On Day 0, male and female mice weighing 22-30 g are inoculated with 0.2 mL of a 25% tumor mince. This mince is prepared by mincing fresh tumor tissue, grown subcutaneously in passage mice, in sterile physiological saline. Palpable tumors weighing approximately 50 mg appear in the mice within 7-10 days after inoculation. The mice are pair matched by tumor weight and sex into groups of ten each and the test compounds and vehicle control are administered intravenously (i.v.) once daily for nine consecutive days. A >20% decrease in body weight on Day 5 following compound administration is considered an indication of toxicity. Tumor measurements and body weights are recorded once a week. Fifteen to eighteen days after the initial injection the mice are weighed, sacrificed, and the tumors excised and weighed.
(§3) The efficacy of the test compounds is determined by the extent of tumor growth inhibition in treated versus vehicle-treated control mice. Initial tumor weights (mg) are calculated from the tumor dimensions (mm) obtained from caliper measurements, using the formula for a prolate ellipsoid (mg of tumor weight=(length×width^2)/2). Net tumor weights are calculated for each of the treated groups and the vehicle-treated control group by subtracting the initial tumor weight from the final tumor weight (Day 15-18). Results are expressed as a percentage decrease relative to the mean tumor weight for the control vehicle-treated group.
(§4) Tumor Growth Inhibition= [formula]
(§5) The evaluation criteria of the National Cancer Institute for activity in in vivo cancer models were used. Tumor growth inhibition of 58-89% against the various xenografts is considered moderate activity, and inhibition of ≥90% is considered good to excellent activity. Actual tumor regressions (IR=incomplete regression; FR=full regression) indicate excellent to outstanding activity.

[2] = Solubility in water
[3] = test system: Clone A human colon cancer cells; experiment: In vitro growth inhibition of Clone A cells (MTT, 72 hr); format: cell-based; conditions: read-out: Clone A IC50
Description: (§6) The reagents for tissue culture were purchased from GIBCO (Grand Island, N.Y.). 5-Dimethylthiazol-2-yl)-2,5-diphenyl tetrazolium bromide (MTT) was purchased from Sigma Chemical Company (St. Louis, Mo.). All agents were prepared as 2 mg/ml stock solutions in DMSO. MTT was prepared as a 1 mg/ml stock solution in Dulbecco's phosphate buffered saline (PBS). All stocks were stored frozen in the dark at -20° C.
(§7) Clone A human colon cancer cells were isolated from the heterogeneous DLD-1 colon tumor line and maintained as previously described (Dexter, D. L.; Barbosa, J. A.; Calabresi, P. Cancer Research 1979, 39, 1020; Dexter, D. L.; Spremulli, E. M.; Fligiel, A.; Barbosa, J. A.; Vogel, R.; Van Vorhees, A.; Calabresi, P. Am. J. Med. 1981, 71, 949.). Murine leukemia L1210 cells were maintained in RPMI-L medium as described (Chen, S.-F.; Ruben, R. L.; Dexter, D. L. Cancer Research 1986, 46, 5014.). All cell lines were incubated at 37° C. in a humidified atmosphere of 5% CO2 -95% air.
(§8) Exponentially growing L1210 cells (1×10^3), or Clone A cells (8×10^2) in 0.1 ml medium were seeded in a 96-well microtiter plate on day 0. On day one, 0.1 ml aliquots of medium containing graded concentrations of test compounds were added to the cell plates. After incubation at 37° C. in a humidified incubator for 72 hr, the plates containing L1210 cells were centrifuged briefly and 100 μl of the growth medium was removed. Cell cultures were incubated with 50 μl of MTT for 4 h at 37° C. (12). The resulting purple formazan precipitate was solubilized with 200 μl of 0.04 N HCl in isopropyl alcohol. Absorbance was read in a Titertek Multiskan MCC scanning well spectrophotometer (Flow Laboratories) at a test wavelength of 570 nm and a reference wavelength of 630 nm. The absorbances were stored on a floppy disk on an IBM-XT and uploaded onto a VAX computer. IC50 values were determined by a computer program that fit the data to the following equation:
(§9) Y=((Am -Ao)/(1+(X/IC50)^n))+Ao
(§10) where Am =absorbance of the control cells; Ao =absorbance of the cells in the presence of highest compound concentration; Y=observed absorbance; X=compound concentration; IC50 =dose of compound that inhibits the number of population doublings of cells to one half that of the number of population doublings of the control cells; and n equals the slope of the straight portion of the curve.
(§11) The values reported in the table are from at least one experiment performed in eight replicates. If more than one experiment was performed, the number reported is the average of all the trials

[4] = test system: Murine leukemia L1210 cells; experiment: In vitro growth inhibition of L1210 cells (MTT, 72 hr); format: cell-based; conditions: Mus musculus, read-out: L1210 IC50
Description: as §6, §7, §8, §9, §10, §11

[5] = test system: MX-1 human mammary carcinoma; experiment: In vivo human tumor xenograft MX-1 in nude mice; conditions: for Tumor Growth Inhibition activity against MX-1 (in words): NCI criteria
Description: as §1, §2, §3, §4, §5

[6] = i.v. once daily for nine days, nude mice
[7] = Mus musculus, iv, 216 h, i.v. once daily for nine days, nude mice, read-out: MX-1 percent tumor growth inhibition
[8] = Mus musculus, iv, 216 h, read-out: MX-1 tumor regressions, IR=incomplete regression
[9] = Mus musculus, iv, 216 h, read-out: MX-1 percent tumor growth inhibition

CS(=O)(=O)O.O=C1c2cc([N+](=O)[O-])cc3c2c(cc2cccnc23)C(=O)N1CCCNCCN1C(=O)c2cc([N+](=O)[O-])cc3c2c(cc2cccnc23)C1=O [Example 3, 3-[2-(3-Nitro-5-azaphenanthrene-1,10-dicarboximido)ethylamino]-1-(3-nitro-5-azaphenanthrene-1, 10-dicarboximido) propane Hydromethanesulfonate]
inhibition in vivo at 20 mg/kg ([1]; Mus musculus, DLD2, iv, 216 h, read-out: DLD-2 percent tumor growth inhibition): 92%
Tumor Growth Inhibition activity against DLD-2 (in words) [1, 6]: moderate to excellent
solubility [2]: 80 µg/mL
IC50 ([3]; 72 h): 4 ng/mL
IC50 ([4]; L1210, 72 h): 0.006 µg/mL

Cc1cnc2c(c1)cc1c3c(cc([N+](=O)[O-])cc32)C(=O)N(CCNCCNCCN2C(=O)c3cc([N+](=O)[O-])cc4c3c(cc3cc(C)cnc34)C2=O)C1=O [Example 23]
solubility [2]: 120 µg/mL (≈ 165 µM)
IC50 ([3]; Clone A cells, 72 hr, MTT): 43 ng/mL (≈ 0.0592 µM)
IC50 ([4]; L1210 cells, 72 hr, MTT): 0.042 µg/mL (≈ 0.0578 µM)
inhibition in vivo at 25 mg/kg [5, 7]: 0%

CS(=O)(=O)O.CS(=O)(=O)O.Cc1cnc2c(c1)cc1c3c(cc([N+](=O)[O-])cc32)C(=O)N([C@H](C)CNCCNC[C@@H](C)N2C(=O)c3cccc4cc([N+](=O)[O-])cc(c34)C2=O)C1=O [Example 117, (R,R)-1-[2-(3-Nitro-7-methyl-5-azaphenanthrene-1, 10-dicarboximido)propylamino]-2-[2-(3-nitronaphthalene-1,8-dicarboximido)propylamino]ethane Dihydromethanesulfonate]
solubility [2]: 8700 µg/mL
IC50 ([3]; 72 h): 2 ng/mL
IC50 ([4]; L1210, 72 h): 0.036 µg/mL
responders at 6 mg/kg [5, 8]: 100%
Tumor Growth Inhibition activity against MX-1 (in words) [5, 6]: moderate to excellent

CS(=O)(=O)O.O=C1c2cccc3c2c(cc2ncccc23)C(=O)N1CCCCNCCCN1C(=O)c2cccc3c2c(cc2ncccc23)C1=O [Example 17, 4-[3-(8-Azaphenanthrene-1,10-dicarboximido)propylamino]-1-(8-azaphenanthrene-1,10-dicarboximido) butane Hydromethanesulfonate]
inhibition in vivo at 6.2 mg/kg ([1]; Mus musculus, DLD2, iv, 216 h, 6.2 mg/kg, i.v. once daily for nine days, nude mice, read-out: DLD-2 percent tumor growth inhibition): 59%
Tumor Growth Inhibition activity against DLD-2 (in words) [1, 6]: moderate to excellent
IC50 ([3]; Clone A cells, 72 hr, MTT): 1 ng/mL
IC50 ([4]; L1210 cells, 72 hr, MTT): 0.001 µg/mL

CS(=O)(=O)O.CS(=O)(=O)O.O=C1c2cc([N+](=O)[O-])cc3c2c(cc2ncccc23)C(=O)N1CCNCCNCCN1C(=O)c2cc([N+](=O)[O-])cc3c2c(cc2ncccc23)C1=O [Example 19, 1,2-bis-[2-(3-Nitro-8-azaphenanthrene-1,10-dicarboximido)ethylamino]ethane Dihydromethanesulfonate]
solubility [2]: 950 µg/mL
IC50 ([3]; 72 h): 9 ng/mL
IC50 ([4]; L1210, 72 h): 0.013 µg/mL
inhibition in vivo at 6 mg/kg [5, 9]: 84%
Tumor Growth Inhibition activity against MX-1 (in words) [5, 6]: moderate to excellent

CS(=O)(=O)O.CS(=O)(=O)O.C[C@@H](CN1C(=O)c2cc([N+](=O)[O-])cc3c2c(cc2cccnc23)C1=O)NCCN[C@@H](C)CN1C(=O)c2cc([N+](=O)[O-])cc3c2c(cc2cccnc23)C1=O [Example 20, (S,S)-1,2-bis-[2-(3-Nitro-5-azaphenanthrene-1, 10-dicarboximido)-1-methylethylamino]ethane Dihydromethanesulfonate]
solubility [2]: 3330 µg/mL
IC50 ([4]; L1210, 72 h): 0.012 µg/mL
inhibition in vivo at 6.2 mg/kg [5, 9]: 95%
responders at 6.2 mg/kg [5, 8]: 11.1%
Tumor Growth Inhibition activity against MX-1 (in words) [5, 6]: moderate to excellent

CS(=O)(=O)O.O=C1c2ccccc2C(=O)c2c1cc1c3c(cccc23)C(=O)N(CCCCNCCCN2C(=O)c3cccc4c5c(cc(c34)C2=O)C(=O)c2ccccc2C5=O)C1=O [Example 100, 4-[3-(7,12-Dihydro-7,12-dioxobenz[a]anthracene-4,5-dicarboximido)propylamino]-1-(7,12-dihydro-7,12-dioxobenz[a]anthracene-4,5-dicarboximido)butane Hydromethanesulfonate]
solubility [2]: 160 µg/mL
IC50 ([3]; Clone A cells, 72 hr, MTT): 70 ng/mL
IC50 ([4]; L1210 cells, 72 hr, MTT): 0.014 µg/mL
inhibition in vivo at 20 mg/kg ([5]; Mus musculus, iv, 216 h, 20 mg/kg, i.v. once daily for nine days, nude mice, read-out: MX-1 percent tumor growth inhibition): 24%

Cc1cnc2c(c1)cc1c3c(cc([N+](=O)[O-])cc32)C(=O)N(C[C@H](C)NCCN[C@@H](C)CN2C(=O)c3cc([N+](=O)[O-])cc4c3c(cc3cc(C)cnc34)C2=O)C1=O [Example 26]
IC50 ([3]; 72 h): 12 ng/mL (≈ 0.0159 µM)
IC50 ([4]; L1210, 72 h): 0.018 µg/mL (≈ 0.0238 µM)
inhibition in vivo at 6.2 mg/kg [5, 9]: 22%

CS(=O)(=O)O.CS(=O)(=O)O.O=C1c2cc([N+](=O)[O-])cc3c2c(cc2cccnc23)C(=O)N1CCNCCNCCN1C(=O)c2cc([N+](=O)[O-])cc3c2c(cc2cccnc23)C1=O [Example 6, 1,2-bis-[2-(3-Nitro-5-azaphenanthrene-1,10-dicarboximido)ethylamino]ethane Dihydromethanesulfonate]
solubility [2]: 330 µg/mL
IC50 ([3]; 72 h): 5 ng/mL
IC50 ([4]; L1210, 72 h): 0.041 µg/mL
inhibition in vivo at 12.5 mg/kg [5, 9]: 81%
Tumor Growth Inhibition activity against MX-1 (in words) [5, 6]: moderate to excellent

Cc1cnc2c(c1)cc1c3c(cc([N+](=O)[O-])cc32)C(=O)N(CCCNCCN2C(=O)c3cc([N+](=O)[O-])cc4c3c(cc3cc(C)cnc34)C2=O)C1=O [Example 22]
solubility [2]: 30 µg/mL (≈ 43 µM)
IC50 ([3]; Clone A cells, 72 hr, MTT): 3 ng/mL (≈ 0.0043 µM)
IC50 ([4]; L1210 cells, 72 hr, MTT): 0.02 µg/mL (≈ 0.0287 µM)
inhibition in vivo at 25 mg/kg [5, 7]: 0%

CS(=O)(=O)O.O=C1c2cccc3c2c(cc2ccc(C(F)(F)F)cc23)C(=O)N1CCCCNCCCN1C(=O)c2cccc3c2c(cc2ccc(C(F)(F)F)cc23)C1=O [Example 44, 4-(3-[6-(Trifluoromethyl)phenanthrene-1,10-dicarboximido]propylamino)-1-[6-(trifluoromethyl)phenanthrene-1, 10dicarboximido]butane Hydromethanesulfonate]
solubility [2]: 270 µg/mL
IC50 ([3]; 72 h): 1010 ng/mL
IC50 ([4]; L1210, 72 h): 0.888 µg/mL

CS(=O)(=O)O.O=C1c2cccc3c2c(cc2ccccc23)C(=O)N1CCCCNCCCN1C(=O)c2cccc3c2c(cc2ccccc23)C1=O [Example 40, 4-[3-(Phenanthrene-1, 10-dicarboximido)propylamino]-1-(phenanthrene-1, 10-dicarboximido) butane Hydromethanesulfonate]
solubility [2]: 60 µg/mL
IC50 ([3]; 72 h): 412 ng/mL
IC50 ([4]; L1210, 72 h): 0.098 µg/mL
